pIC50: −log10 of the molar value.
Target: T1, human TLR8 (Homo sapiens, UniProt Q9NR97)
T1 construct: host or cells: HEK293 (HEK-Blue hTLR8)
T1 sequence (Q9NR97 27-1041): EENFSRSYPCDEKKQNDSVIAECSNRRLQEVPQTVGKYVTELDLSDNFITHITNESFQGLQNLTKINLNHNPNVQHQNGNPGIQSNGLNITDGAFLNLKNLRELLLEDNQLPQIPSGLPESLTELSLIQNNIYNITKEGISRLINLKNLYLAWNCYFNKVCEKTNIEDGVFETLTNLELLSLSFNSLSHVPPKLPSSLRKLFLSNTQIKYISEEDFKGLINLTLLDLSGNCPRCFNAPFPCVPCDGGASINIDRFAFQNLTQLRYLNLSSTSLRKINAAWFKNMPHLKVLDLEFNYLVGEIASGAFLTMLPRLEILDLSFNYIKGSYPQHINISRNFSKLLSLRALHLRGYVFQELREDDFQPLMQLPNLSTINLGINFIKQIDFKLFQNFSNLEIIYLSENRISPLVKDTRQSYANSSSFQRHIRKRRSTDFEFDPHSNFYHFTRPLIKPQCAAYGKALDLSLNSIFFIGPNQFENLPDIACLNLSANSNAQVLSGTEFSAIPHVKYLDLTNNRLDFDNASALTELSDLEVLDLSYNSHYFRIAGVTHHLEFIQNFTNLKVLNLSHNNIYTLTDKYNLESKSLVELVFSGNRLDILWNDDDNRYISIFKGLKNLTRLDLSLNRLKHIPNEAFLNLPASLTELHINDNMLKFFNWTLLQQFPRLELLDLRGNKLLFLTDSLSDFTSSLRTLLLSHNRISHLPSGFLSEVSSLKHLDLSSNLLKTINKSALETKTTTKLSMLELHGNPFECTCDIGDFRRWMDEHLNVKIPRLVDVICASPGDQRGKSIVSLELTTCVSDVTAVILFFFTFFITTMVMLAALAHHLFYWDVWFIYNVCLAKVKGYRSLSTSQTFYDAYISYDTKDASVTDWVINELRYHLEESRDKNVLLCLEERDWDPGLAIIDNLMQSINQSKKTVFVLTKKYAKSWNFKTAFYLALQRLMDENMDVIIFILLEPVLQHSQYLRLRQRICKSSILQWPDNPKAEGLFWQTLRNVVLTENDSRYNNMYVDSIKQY
Assay: HEK293-Blue-hTLR-8 cells assay (SEAP reporter, R848 stimulation)
Type: cell-based
Settings: HEK293-Blue-hTLR8 cells, R848, 20 hrs; read-out: HEK/hTLR8 IC50
Method in brief: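 HEK293-Blue-hTLR8 cells (NF-κB/AP-1-driven SEAP) incubated 20 h at 37° C with serially diluted compound (1% DMSO) plus R848 stimulation. Supernatant SEAP measured with QUANTI-Blue, 2 h at 37° C, absorbance 620–655 nm.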

| SMILES | pIC50 |
| --- | --- |
| COC1CNCC1Nc1nc(C)cc(N2CCN(C[C@H]3CN(c4ccc(C#N)c5ncccc45)C[C@@H](C)O3)CC2)n1 (stereo in doubt) [Example 70, 5-[(2S,6R)-2-[[4-[2-[[(3R,4R)-4-methoxypyrrolidin-3-yl]amino]-6-methyl-pyrimidin-4-yl]piperazin-1-yl]methyl]-6-methyl-morpholin-4-yl]quinoline-8-carbonitrile] | 7.92 |
| Cc1cc(N2CCN(C[C@H]3CN(c4ccc(C#N)c5ncccc45)C[C@@H](C)O3)CC2)nc(NC2CNCC2F)n1 (stereo in doubt) [Example 73, 5-[(2S,6R)-2-[[4-[2-[[(3S,4R)-4-fluoropyrrolidin-3-yl]amino]-6-methyl-pyrimidin-4-yl]piperazin-1-yl]methyl]-6-methyl-morpholin-4-yl]quinoline-8-carbonitrile] | 7.77 |
| Cc1cc(N2CCN(C[C@H]3CN(c4ccc(C#N)c5ncccc45)C[C@@H](C)O3)CC2)nc(N2CC[C@@H](N)C(F)C2)n1 (stereo in doubt) [Example 82, 5-[(2S,6R)-2-[[4-[2-[(3R,4R)-4-amino-3-fluoro-1-piperidyl]-6-methyl-pyrimidin-4-yl]piperazin-1-yl]methyl]-6-methyl-morpholin-4-yl]quinoline-8-carbonitrile] | 9.00 |
| Cc1cc(N2CCN(C[C@H]3CN(c4ccc(C#N)c5ncccc45)C[C@@H](C)O3)CC2)nc(N[C@@H]2CNC[C@@H]2F)n1 [Example 71, 5-[(2S,6R)-2-[[4-[2-[[(3R,4S)-4-fluoropyrrolidin-3-yl]amino]-6-methyl-pyrimidin-4-yl]piperazin-1-yl]methyl]-6-methyl-morpholin-4-yl]quinoline-8-carbonitrile] | 7.82 |
| Cc1cc(N2CCN(C[C@H]3CN(c4ccc(C#N)c5ncccc45)C[C@@H](C)O3)CC2)nc(N[C@@H]2CNC[C@H]2F)n1 [Example 76, 5-[(2S,6R)-2-[[4-[2-[[(3R,4R)-4-fluoropyrrolidin-3-yl]amino]-6-methyl-pyrimidin-4-yl]piperazin-1-yl]methyl]-6-methyl-morpholin-4-yl]quinoline-8-carbonitrile] | 8.52 |
| Cc1cc(N2CCN(C[C@H]3CN(c4ccc(C#N)c5ncccc45)C[C@@H](C)O3)CC2)nc(N2CC[C@@H](N)[C@@H](F)C2)n1 [Example 78, 5-[(2S,6R)-2-[[4-[2-[(3S,4R)-4-amino-3-fluoro-1-piperidyl]-6-methyl-pyrimidin-4-yl]piperazin-1-yl]methyl]-6-methyl-morpholin-4-yl]quinoline-8-carbonitrile] | 9.00 |
| Cc1cc(N2CCN(C[C@H]3CN(c4ccc(C#N)c5ncccc45)C[C@@H](C)O3)CC2)nc(N2CC(N)CC(F)(F)C2)n1 (stereo partly drawn) [Example 80, 5-[(2S,6R)-2-[[4-[2-(5-amino-3,3-difluoro-1-piperidyl)-6-methyl-pyrimidin-4-yl]piperazin-1-yl]methyl]-6-methyl-morpholin-4-yl]quinoline-8-carbonitrile] | 8.22 |
| Cc1cc(N2CCN(C[C@H]3CN(c4ccc(C#N)c5ncccc45)C[C@@H](C)O3)CC2)nc(N2CCNC(C(C)(C)O)C2)n1 (stereo partly drawn) [Example 81, 5-[(2S,6R)-2-[[4-[2-[3-(1-hydroxy-1-methyl-ethyl)piperazin-1-yl]-6-methyl-pyrimidin-4-yl]piperazin-1-yl]methyl]-6-methyl-morpholin-4-yl]quinoline-8-carbonitrile] | 8.70 |
| Cc1cc(N2CCN(C[C@H]3CN(c4ccc(C#N)c5ncccc45)C[C@@H](C)O3)CC2)nc(N2CCC(N)C(F)(F)C2)n1 (stereo partly drawn) [Example 86, 5-[(2S,6R)-2-[[4-[2-(4-amino-3,3-difluoro-1-piperidyl)-6-methyl-pyrimidin-4-yl]piperazin-1-yl]methyl]-6-methyl-morpholin-4-yl]quinoline-8-carbonitrile] | 8.22 |
| C[C@@H]1CN(c2ccc(C#N)c3ncccc23)C[C@H](CN2CCN(c3ccccc3C3CNCCO3)CC2)O1 (stereo partly drawn) [Example 89, 5-[(2R,6S)-2-methyl-6-[[4-(2-morpholin-2-ylphenyl)piperazin-1-yl]methyl]morpholin-4-yl]quinoline-8-carbonitrile] | 7.54 |

More lines, now with the values ahead:

| pIC50 | SMILES |
| --- | --- |
| 8.52 | Cc1cc(N2CCN(C[C@H]3CN(c4ccc(C#N)c5ncccc45)C[C@@H](C)O3)CC2)nc(N2C[C@H](N)C[C@H](F)C2)n1 (relative stereo) [Example 74, 5-[(2R,6S)-2-methyl-6-[[4-[6-methyl-2-[cis-3-amino-5-fluoro-1-piperidyl]pyrimidin-4-yl]piperazin-1-yl]methyl]morpholin-4-yl]quinoline-8-carbonitrile] |
| 8.52 | Cc1cc(N2CCN(C[C@H]3CN(c4ccc(C#N)c5ncccc45)C[C@@H](C)O3)CC2)nc(N2C[C@H](N)C[C@@H](F)C2)n1 (relative stereo) [Example 75, 5-[(2R,6S)-2-methyl-6-[[4-[6-methyl-2-[trans-3-amino-5-fluoro-1-piperidyl]pyrimidin-4-yl]piperazin-1-yl]methyl]morpholin-4-yl]quinoline-8-carbonitrile] |
| 8.70 | CO[C@H]1CN(c2nc(C)cc(N3CCN(C[C@H]4CN(c5ccc(C#N)c6ncccc56)C[C@@H](C)O4)CC3)n2)C[C@@H]1N (single isomer, unassigned) [Example 69A] |
| 8.70 | CO[C@@H]1CN(c2nc(C)cc(N3CCN(C[C@H]4CN(c5ccc(C#N)c6ncccc56)C[C@@H](C)O4)CC3)n2)C[C@H]1N (single isomer, unassigned) [Example 69B] |
| 8.15 | Cc1cc(N2CCN(C[C@H]3CN(c4ccc(C#N)c5ncccc45)C[C@@H](C)O3)CC2)nc(N2CC[C@@H](F)C(N)C2)n1 (single isomer, unassigned) [Example 84] |
| 8.70 | COC1CN(c2nc(C)cc(N3CCN(C[C@H]4CN(c5ccc(C#N)c6ncccc56)C[C@@H](C)O4)CC3)n2)CC1N (single isomer, unassigned) [Example 88] |
| 8.70 | CO[C@H]1CN(c2nc(C)cc(N3CCN(C[C@H]4CN(c5ccc(C#N)c6ncccc56)C[C@@H](C)O4)CC3)n2)CCC1N (stereo in doubt) [Example 90, 5-[(2S,6R)-2-[[4-[2-[(3S,4S)-4-amino-3-methoxy-1-piperidyl]-6-methyl-pyrimidin-4-yl]piperazin-1-yl]methyl]-6-methyl-morpholin-4-yl]quinoline-8-carbonitrile] |
| 8.52 | CO[C@@H]1CN(c2nc(C)cc(N3CCN(C[C@H]4CN(c5ccc(C#N)c6ncccc56)C[C@@H](C)O4)CC3)n2)C[C@@H]1N [Example 72, 5-[(2S,6R)-2-[[4-[2-[(3S,4R)-3-amino-4-methoxy-pyrrolidin-1-yl]-6-methyl-pyrimidin-4-yl]piperazin-1-yl]methyl]-6-methyl-morpholin-4-yl]quinoline-8-carbonitrile] |
| 8.70 | Cc1cc(N2CCN(C[C@H]3CN(c4ccc(C#N)c5ncccc45)C[C@@H](C)O3)CC2)nc(N2C[C@@H](N)C[C@@H](F)C2)n1 [Example 77, 5-[(2S,6R)-2-[[4-[2-[(3S,5R)-3-amino-5-fluoro-1-piperidyl]-6-methyl-pyrimidin-4-yl]piperazin-1-yl]methyl]-6-methyl-morpholin-4-yl]quinoline-8-carbonitrile] |
| 8.70 | Cc1cc(N2CCN(C[C@H]3CN(c4ccc(C#N)c5ncccc45)C[C@@H](C)O3)CC2)nc(N2C[C@@H](N)[C@H](F)C2)n1 [Example 79, 5-[(2S,6R)-2-[[4-[2-[(3R,4R)-3-amino-4-fluoro-pyrrolidin-1-yl]-6-methyl-pyrimidin-4-yl]piperazin-1-yl]methyl]-6-methyl-morpholin-4-yl]quinoline-8-carbonitrile] |
| 8.52 | Cc1cc(N2CCN(C[C@H]3CN(c4ccc(C#N)c5ncccc45)C[C@@H](C)O3)CC2)nc(N2CC[C@@H](F)[C@@H](N)C2)n1 [Example 83, 5-[(2R,6S)-2-methyl-6-[[4-[6-methyl-2-[(3S,4R)-3-amino-4-fluoro-1-piperidyl]-pyrimidin-4-yl]piperazin-1-yl]methyl]morpholin-4-yl]quinoline-8-carbonitrile] |
| 8.70 | Cc1cc(N2CCN(C[C@H]3CN(c4ccc(C#N)c5ncccc45)C[C@@H](C)O3)CC2)nc(N2CC(N)C2)n1 [Example 87, 5-[(2S,6R)-2-[[4-[2-(3-aminoazetidin-1-yl)-6-methyl-pyrimidin-4-yl]piperazin-1-yl]methyl]-6-methyl-morpholin-4-yl]quinoline-8-carbonitrile] |

From patent publication US20210395239A1 (Hoffmann-La Roche Inc., priority 2018, published 2021)
